The results in this text go back to patent publication US12030904B2 (priority 2020, dated 2024).

Structures are written as SMILES. Like-named read-outs stand apart in the source and are kept apart here.

Data set [1] deals with Recombinant Respiratory Syncytial virus strain A2 containing the firefly luciferase reporter (RSV-Fluc). Kind of data set: microbe, parasite or virus in culture. Format: cell-based. The settings on record: human respiratory syncytial virus, NHBE.
Data set [2] is described as follows: MT4 cytotoxicity (CC50). The settings on record: human, MT4 cells.
For data set [3], the system named is SARS-CoV-2. Nature of the data set: microbe, parasite or virus in culture. In kind it is cell-based. Particulars: Severe acute respiratory syndrome coronavirus 2, read-out: SARS EC50.
The mark [4] stands for this setting: 72 h, read-out: RSV-Fluc EC50 (NHBE), NHBE cells, three days, Table 2.

Turning to `CCCCCCCCCCCCCCOCCCOP(=O)(O)OC[C@H]1O[C@@](C#N)(c2ccc3c(N)ncnn23)[C@H](O)[C@@H]1O` [Example 58, ((2R,3S,4R,5R)-5-(4-Aminopyrrolo[2,1-f][1,2,4]triazin-7-yl)-5-cyano-3,4-dihydroxytetrahydrofuran-2-yl)methyl (3-(tetradecyloxy)propyl) hydrogen phosphate], the EC50 came to 70 nM in data set [1] (setting [4]); 70 nM in data set [1] (read-out: RSV EC50, Table 2a); 10000 nM in data set [3]. Half-maximal cytotoxicity in data set [2] (MT4 CC50, Table 2a) (CC50) was put at 13000 nM.
With `CCCCCCCCCCCCCCCCCCOCCCOP(=O)(O)OC[C@H]1O[C@@](C#N)(c2ccc3c(N)ncnn23)[C@H](O)[C@@H]1O` [Example 59, ((2R,3S,4R,5R)-5-(4-Aminopyrrolo[2,1-f][1,2,4]triazin-7-yl)-5-cyano-3,4-dihydroxytetrahydrofuran-2-yl)methyl (3-(octadecyloxy)propyl) hydrogen phosphate], the concentration giving a half-maximal response (EC50) was 170 nM in data set [1] (setting [4]); 171 nM in data set [1] (read-out: RSV EC50, Table 2a); 10000 nM in data set [3]. Besides, in data set [2] (MT4 CC50, Table 2a), the half-maximal cytotoxic concentration (CC50) is 19600 nM.
Taken in the same sequence, the figures for `CCCCCCCCCCCCCCCCOCCCOP(=O)(O)OC[C@H]1O[C@@](C#N)(c2ccc3c(N)ncnn23)[C@H](O)[C@@H]1O` [Example 60, ((2R,3S,4R,5R)-5-(4-Aminopyrrolo[2,1-f][1,2,4]triazin-7-yl)-5-cyano-3,4-dihydroxytetrahydrofuran-2-yl)methyl (3-(hexadecyloxy)propyl) hydrogen phosphate] were 73 nM, 73 nM, 6950 nM and 25800 nM.
As for `CCCCCCCCCCCCCCCCOC[C@H](COP(=O)(O)OC[C@H]1O[C@@](C#N)(c2ccc3c(N)ncnn23)[C@H](O)[C@@H]1O)OCCCCCCCCCCCCCCCC` [Example 61, ((2R,3S,4R,5R)-5-(4-Aminopyrrolo[2,1-f][1,2,4]triazin-7-yl)-5-cyano-3,4-dihydroxytetrahydrofuran-2-yl)methyl ((R)-2,3-bis(hexadecyloxy)propyl) hydrogen phosphate], the EC50 in data set [1] (setting [4]) is 4500 nM; in data set [1] (read-out: RSV EC50, Table 2a), 4540 nM; in data set [3], 10000 nM. The CC50 in data set [2] (MT4 CC50, Table 2a) was 50000 nM.
Taken in the same sequence, the figures for `CCCCCCCCCCCCCCCCCCOC[C@H](COP(=O)(O)OC[C@H]1O[C@@](C#N)(c2ccc3c(N)ncnn23)[C@H](O)[C@@H]1O)OCc1ccc(Cl)cc1Cl` [Example 62, ((2R,3S,4R,5R)-5-(4-aminopyrrolo[2,1-f][1,2,4]triazin-7-yl)-5-cyano-3,4-dihydroxytetrahydrofuran-2-yl)methyl ((R)-2-((2,4-dichlorobenzyl)oxy)-3-(octadecyloxy)propyl) hydrogen phosphate] were 220 nM, 217 nM, 8620 nM and 12600 nM.
For `CCCCCCCCCCCCCCCCCCOC[C@H](COP(=O)(O)OC[C@H]1O[C@@](C#N)(c2ccc3c(N)ncnn23)[C@H](O)[C@@H]1O)OCc1ccc(C#N)c(F)c1` [Example 67, ((2R,3S,4R,5R)-5-(4-aminopyrrolo[2,1-f][1,2,4]triazin-7-yl)-5-cyano-3,4-dihydroxytetrahydrofuran-2-yl)methyl ((R)-2-((4-cyano-3-fluorobenzyl)oxy)-3-(octadecyloxy)propyl) hydrogen phosphate] the same measures were 7.6 nM, 19 nM, 229 nM and 744 nM.
As to `CCCCCCCCCCCCCCCCCCOC[C@H](COP(=O)(O)OC[C@H]1O[C@@](C#N)(c2ccc3c(N)ncnn23)[C@H](O)[C@@H]1O)Oc1ccccc1C#N` [Example 73, ((2R,3S,4R,5R)-5-(4-aminopyrrolo[2,1-f][1,2,4]triazin-7-yl)-5-cyano-3,4-dihydroxytetrahydrofuran-2-yl)methyl ((R)-2-(2-cyanophenoxy)-3-(octadecyloxy)propyl) hydrogen phosphate], the EC50 was found to be 107 nM in data set [1] (read-out: RSV EC50, Table 4) and 150 nM in data set [3]. Moreover, half-maximal cytotoxicity in data set [2] (MT4 CC50, Table 4) (CC50) was put at 1200 nM.
With `CCCCCCCCCCCCCCCCCCOC[C@H](COP(=O)(O)OC[C@H]1O[C@@](C#N)(c2ccc3c(N)ncnn23)[C@H](O)[C@@H]1O)Oc1ccc(C#N)c(OC)c1` [Example 74, ((2R,3S,4R,5R)-5-(4-aminopyrrolo[2,1-f][1,2,4]triazin-7-yl)-5-cyano-3,4-dihydroxytetrahydrofuran-2-yl)methyl ((R)-2-(4-cyano-3-methoxyphenoxy)-3-(octadecyloxy)propyl) hydrogen phosphate], the concentration giving a half-maximal response (EC50) in data set [1] (read-out: RSV EC50, Table 4) turned out to be 10 nM; in data set [3] it was 31 nM. In data set [2] (MT4 CC50, Table 4), this compound returned a CC50 of 196 nM.
For `CCCCCCCCCCCCCCCCCCOC[C@H](COP(=O)(O)OC[C@H]1O[C@@](C#N)(c2ccc3c(N)ncnn23)[C@H](O)[C@@H]1O)OCc1cncc(C#N)c1` [Example 75, ((2R,3S,4R,5R)-5-(4-aminopyrrolo[2,1-f][1,2,4]triazin-7-yl)-5-cyano-3,4-dihydroxytetrahydrofuran-2-yl)methyl ((R)-2-((5-cyanopyridin-3-yl)methoxy)-3-(octadecyloxy)propyl) hydrogen phosphate] the same measures were 72 nM, 28 nM and 195 nM.
Taken in the same sequence, the figures for `CCCCCCCCCCCCCCCCCCOC[C@H](COP(=O)(O)OC[C@H]1O[C@@](C#N)(c2ccc3c(N)ncnn23)[C@H](O)[C@@H]1O)Oc1ccc(C#N)cn1` [Example 76, ((2R,3S,4R,5R)-5-(4-aminopyrrolo[2,1-f][1,2,4]triazin-7-yl)-5-cyano-3,4-dihydroxytetrahydrofuran-2-yl)methyl ((R)-2-((5-cyanopyridin-2-yl)oxy)-3-(octadecyloxy)propyl) hydrogen phosphate] were 31 nM, 48 nM and 295 nM.
For `CCCCCCCCCCCCCCCCCCOC[C@H](COP(=O)(O)OC[C@H]1O[C@@](C#N)(c2ccc3c(N)ncnn23)[C@H](O)[C@@H]1O)Oc1cnc(C#N)cn1` [Example 77, ((2R,3S,4R,5R)-5-(4-aminopyrrolo[2,1-f][1,2,4]triazin-7-yl)-5-cyano-3,4-dihydroxytetrahydrofuran-2-yl)methyl ((R)-2-((5-cyanopyrazin-2-yl)oxy)-3-(octadecyloxy)propyl) hydrogen phosphate] the same measures were 7 nM, 31 nM and 196 nM.
For the compound `CCCCCCCCCCCCCCCCCCOC[C@H](COP(=O)(O)OC[C@H]1O[C@@](C#N)(c2ccc3c(N)ncnn23)[C@H](O)[C@@H]1O)Oc1ccc(C#N)nc1` [Example 78, ((2R,3S,4R,5R)-5-(4-aminopyrrolo[2,1-f][1,2,4]triazin-7-yl)-5-cyano-3,4-dihydroxytetrahydrofuran-2-yl)methyl ((R)-2-((6-cyanopyridin-3-yl)oxy)-3-(octadecyloxy)propyl) hydrogen phosphate], the EC50 amounted to 7 nM in data set [1] (read-out: RSV EC50, Table 4) and 33 nM in data set [3]. In data set [2] (MT4 CC50, Table 4), this compound gave a CC50 of 133 nM.
As to `CCCCCCCCCCCCCCCCCCOC[C@H](COP(=O)(O)OC[C@H]1O[C@@](C#N)(c2ccc3c(N)ncnn23)[C@H](O)[C@@H]1O)n1cnc(C#N)c1` [Example 79, ((2R,3S,4R,5R)-5-(4-aminopyrrolo[2,1-f][1,2,4]triazin-7-yl)-5-cyano-3,4-dihydroxytetrahydrofuran-2-yl)methyl ((R)-2-(4-cyano-1H-imidazol-1-yl)-3-(octadecyloxy)propyl) hydrogen phosphate], the concentration for a half-maximal effect (EC50) in data set [1] (read-out: RSV EC50, Table 4) stood at 103 nM; in data set [3], 330 nM. In data set [2] (MT4 CC50, Table 4), the CC50 came to 10100 nM.
For `CCCCCCCCCCCCCCCCCCOC[C@H](COP(=O)(O)OC[C@H]1O[C@@](C#N)(c2ccc3c(N)ncnn23)[C@H](O)[C@@H]1O)Oc1ccc(C#N)nn1` [Example 80, ((2R,3S,4R,5R)-5-(4-aminopyrrolo[2,1-f][1,2,4]triazin-7-yl)-5-cyano-3,4-dihydroxytetrahydrofuran-2-yl)methyl ((R)-2-((6-cyanopyridazin-3-yl)oxy)-3-(octadecyloxy)propyl) hydrogen phosphate] the same measures were 13 nM, 54 nM and 344 nM.
Taken in the same sequence, the figures for `CCCCCCCCCCCCCCCCCCOC[C@H](COP(=O)(O)OC[C@H]1O[C@@](C#N)(c2ccc3c(N)ncnn23)[C@H](O)[C@@H]1O)n1cc(C#N)nn1` [Example 81, ((2R,3S,4R,5R)-5-(4-aminopyrrolo[2,1-f][1,2,4]triazin-7-yl)-5-cyano-3,4-dihydroxytetrahydrofuran-2-yl)methyl ((R)-2-(4-cyano-1H-1,2,3-triazol-1-yl)-3-(octadecyloxy)propyl) hydrogen phosphate] were 68 nM, 1900 nM and 31100 nM.
As to `CCCCCCCCCCCCCCCCCCOC[C@H](COP(=O)(O)OC[C@H]1O[C@@](C#N)(c2ccc3c(N)ncnn23)[C@H](O)[C@@H]1O)Oc1cnc(C#N)nc1` [Example 82, ((2R,3S,4R,5R)-5-(4-aminopyrrolo[2,1-f][1,2,4]triazin-7-yl)-5-cyano-3,4-dihydroxytetrahydrofuran-2-yl)methyl ((R)-2-((2-cyanopyrimidin-5-yl)oxy)-3-(octadecyloxy)propyl) hydrogen phosphate], the EC50 in data set [1] (read-out: RSV EC50, Table 4) came to 10 nM; in data set [3] it was 120 nM. Further, the midpoint of cytotoxicity in data set [2] (MT4 CC50, Table 4), the CC50, lay at 324 nM.
For `CCCCCCCCCCCCCCCCCCOC[C@H](COP(=O)(O)OC[C@H]1O[C@@](C#N)(c2ccc3c(N)ncnn23)[C@H](O)[C@@H]1O)Oc1cnc(C#N)c(OC)c1` [Example 83, ((2R,3S,4R,5R)-5-(4-aminopyrrolo[2,1-f][1,2,4]triazin-7-yl)-5-cyano-3,4-dihydroxytetrahydrofuran-2-yl)methyl ((R)-2-((6-cyano-5-methoxypyridin-3-yl)oxy)-3-(octadecyloxy)propyl) hydrogen phosphate] the same measures were 5 nM, 40 nM and 164 nM.

Usually EC50 stands for the midpoint of the concentration-response curve. By CC50 is commonly meant the concentration that lowers cell viability or growth by half.
